Patent US20050043412A1, “Remedies for glaucoma comprising bunazosin and prostaglandins” (SANTEN PHARMACEUTICAL CO LTD, priority 2002, published 2005)
Where a name gives a salt, the structure may show the parent alone.

Tested on: intraocular pressure of cynomolgus monkeys
Experiment: Effect on intraocular pressure in normal cynomolgus monkeys after topical instillation
Assay type: in vivo, cynomolgus monkeys (Macaca fascicularis)
Conditions: normal cynomolgus monkey, single eye, 20 μl instillation (Detantol 0.01% bunazosin hydrochloride; Xalatan 0.005% latanoprost; combination: Xalatan 5 minutes after Detantol); IOP measured 2, 4 and 6 hours after administration
Description: So as to study the utility of bunazosin in combination with prostaglandin, bunazosin and prostaglandin were administered in combination to cynomolgus monkeys (Macaca fascicularis), examining the effect on intraocular pressure. Latanoprost was used as prostaglandin.
For bunazosin administration, Detantol (trade mark) ophthalmic solution, which contains bunazosin hydrochloride at 0.01%, was used. For latanoprost administration, Xalatan (trade mark) ophthalmic solution, which contains latanoprost at 0.005%, was used.
Cynomolgus monkeys were divided into four groups, a group to be dosed with a vehicle (vehicle group), a group to be dosed with bunazosin (bunazosin group), a group to be dosed with latanoprost (latanoprost group) and a group to be dosed with bunazosin and latanoprost [(bunazosin+latanoprost) group].
• 1. For topical anesthesia, a drop of 0.4% oxybuprocain hydrochloride ophthalmic solution was instilled into a single eye of each normal cynomolgus monkey. Then, intraocular pressure was measured before drug administration. • 2. […] 2, 4 and 6 hours after the administration of these test compound solutions, one drop of 0.4% oxybuprocain hydrochloride eye drops was instilled for topical anesthesia, and the intraocular pressure was measured. The maximum reduction of intraocular pressure in each group was determined by the following formula. […]

| Compound | Maximum reduction of intraocular pressure |
| --- | --- |
| CC(C)OC(=O)CCC/C=C\C[C@@H]1[C@@H](CC[C@@H](O)CCc2ccccc2)[C@H](O)C[C@@H]1O [Latanoprost] | 2.6 mmHg |
| CCCC(=O)N1CCCN(c2nc(N)c3cc(OC)c(OC)cc3n2)CC1 [Bunazosin, Bunazosin hydrochloride] | 1.9 mmHg |
